Results: US7235584B2, “Non-psychotropic cannabinoids” (Pharmos Corporation, priority 2000, dated 2007)
Read-outs that look alike come from different tables or passages of the source.

Experiments:
[1] = tested on: NMDA receptor; experiment: [3H]MK-801 displacement radioligand binding, rat forebrain membranes
Protocol: The identification of possible recognition sites for PRS-211 analogs was carried out by measuring the ability of these PRS-211 analogs to inhibit the binding of MK-801 to rat forebrain membranes.
Brains were removed from Sprague-Dawley rats no more than 5 min after decapitation. Membrane preparations were isolated according to a procedure described previously (Eshhar et al., Brain Res. 476:57, 1989). Prior to radioligand binding measurements, endogenous glutamate present in membranes was removed from the preparation by subjecting the membranes to 3–4 successive washings in 10 mM Tris HCl pH 7.2, performed at 4° C.
The specific binding of the new analogs to NMDA receptors was determined by their ability to displace [^3H]MK-801 from NMDA receptor in rat forebrain preparations. Specifically, rat-forebrain membranes (0.1 mg) were incubated for 2 hours at room temperature with 10 nM of tritiated MK-801 and with the PRS-211 compounds at 3 doses each. Non-specific binding was determined by the use of 0.1 mM MK-801. Following the incubation, bound radioligand was separated from unbound by filtration through GF/B filters. The filters were counted in a β-counter and log of analog concentrations versus % of [^3H]MK-801 specific binding was plotted. The IC50 was calculated from this plot.
Binding of [^3H]MK-801 to membranes was carried out in the presence of 30 μM glycine and 10 μM L-glutamate. Membranes (250 μg protein) were resuspended in 50 mM tris-acetate pH 7.4 buffer and incubated with 10 nM [^3H]MK-801, either alone or in the presence of PRS-211 compounds at 0.1–100 μM concentrations for three hours at room temperature (RT). Reaction buffers used in the different radioligand binding studies contained 10% of an ethanol/Emulphor 620/deionized water mixture. The ratio (by volume) of the respective components in the mixture was 20/3/57. This mixture is required for solubilizing PRS-211 compounds at concentrations above 30 μM. Reaction volume was 1 ml. Non-specific [^3H]MK-801 binding was determined in the presence of 100 μM unlabeled MK-801.
Concentration dependence of certain PRS-211 analogs on inhibition of [^3H]MK-801 binding is illustrated in FIG. 1.

[2] = tested on: TNFα; experiment: Inhibition of TNFα in LPS-activated macrophage cell cultures (ELISA); type: cell-based
Protocol: Specific aspects of the inflammatory response cascade are mediated by the cytokine TNFα. Inhibition of TNFα production and/or inhibition of TNFα release by the new analogs are assayed in macrophage cell cultures activated with LPS. This serves as another indication of the general anti-inflammatory potential of the novel compounds.
The method for macrophage cell culture growth is identical to the one described in PGE2 assay. Aliquots of the supernatants collected following stimulation with LPS were quantitated for TNFα by enzyme linked immunosorbent assay (ELISA) using HRP conjugated to anti-TNFα antibodies and […] for the colorimetric reaction. The peroxidase catalyzed color reaction was stopped by acidification and the absorbance at 450 nm is measured. The absorbance at this wavelength is proportional to the concentration of TNFα in the sample determined from a standard curve plotting the concentrations of TNFα standards versus their absorbance.

[3] = tested on: T1, nitric oxide synthase (NOS); experiment: Inhibition of nitric oxide synthase, fluorimetric nitrite assay in LPS-stimulated macrophage supernatants; type: cell-based; details: macrophage cell cultures
T1 construct: endogenous in cells
Protocol: As one aspect of the anti-oxidative potential of the novel analogs they were tested for their ability to inhibit the enzyme nitric oxide synthase (NOS). This assay can also serve as another indication of the anti-inflammatory cascade, as well as the anti-oxidative mechanisms.
The final products of NOS are Nitrite (NO2) and Nitrate (NO3). The in vitro fluorimetric assay provides an accurate method for the measurement of the Nitrite, which is the majority of NO products. The principle of the fluorimetric assay is based on the addition of DAN (2,3-diaminonaphthalene) to the aliquots of the supernatants collected from macrophage cell cultures incubated with the new analogs and stimulated with LPS. Following, NaOH was added to convert Nitrite to a fluorescent compound 1(H)-naphthtriazole. The fluorescence was measured immediately in a fluorimeter using excitation wavelength of 365 nm and an emission wavelength of 450 nm.

[4] = tested on: cannabimimetic activity; details: in vivo; cited from earlier work
[5] = tested on: transient MCAo in rats; experiment: Transient middle cerebral artery occlusion (MCAo), infarct size evaluation; type: in vivo; details: transient MCAo
Excerpt: The middle cerebral artery is the cerebral blood vessel most susceptible to stroke in humans. In animals, coagulation, permanent ligation or permanent placement of an occluding thread ink the artery produces a permanent focal stroke affecting the MCA territory. Transient ligation or occlusion results in transient focal stroke. Both transient and permanent focal strokes result in varying degrees of edema and infarction in the affected brain regions. The ability of compounds to reduce the volumes of edema and infarction is considered a measure of their potential as anti-stroke treatment.
• a. Male rats (8/treatment group) 320–380 gr. (Harlan Israel). • b. Halothane (Rhone Poulenc France) • c. Pentobarbitone (Pental Veterinary, CTS Israel). • d. Poly-L-Lysine (Sigma, USA). • e. Silk suture material 3-0 and 4-0. • f. Nylon (Polyamid) suture material 3-0. Four cm pieces were cut and positioned in a solution of 1% Poly-L-Lysine for 1 minute and dried in an oven (60 ° C.) for 60 minutes. The tip of each piece was rounded under a flame. • g. Saline (Teva Medical). • h. Blank cremophor ethanol cosolvent (Pharmos). • i. Dexanabinol in cremophor ethanol cosolvent 50 mg/ml. (Both Dexanabinol and its vehicle were diluted in saline prior to drug administration. • j. Analogs PRS-211,092, PRS-211,095, PRS-211,128 PRS-211,132 and PRS-211,220 in cremophor ethanol cosolvent, 50 mg/ml. • k. The analogs were diluted in saline prior to drug administration. Methods Transient MCAo
a. Surgical details of the MCAO method used for testing dexanabinol analogs, are presented in Belayev, et al., (Belayev, Busto, Weizhao, and Ginsberg, Stroke 26:2313–2319, 1995) which is incorporated herein in its entirety by reference.
b. Two hours after the start of MCAo, the animals were reanesthetized with halothane, the neck wound was re-opened and the nylon thread pulled out of the Internal carotid artery (ICA). The skin wound was then closed with 3-0 silk suture material and the animals allowed to recover from the anesthesia.
c. Three sets of animals were tested. In the first test immediately (2+0 hours) before thread removal the animals were injected IV with either analogs PRS 211,095, PRS 211,128, PRS 211,132, or Dexanabinol (PRS 211,007) each at a dosage of 5 mg/kg. One group of animals was treated with 5mi/kg vehicle alone. In another group, the animals subjected to “sham” operation, the suture was passed into the ICA, as described above, but immediately withdrawn. […] Laser Doppler Flow (LDF) determined the success of MCAo—a drop of more then 50% in cerebral blood flow was considered as a sign of successful MCAO. […]
A detailed investigation of neurological performance was carried out on the first, third and the 7th day after the MCAo. […] Animals were scored according to their performance: […]

[6] = displacement of [3H]MK-801, rat forebrain membranes, read-out: NMDA BINDING IC50

T1 sequence (P35228 whole entry): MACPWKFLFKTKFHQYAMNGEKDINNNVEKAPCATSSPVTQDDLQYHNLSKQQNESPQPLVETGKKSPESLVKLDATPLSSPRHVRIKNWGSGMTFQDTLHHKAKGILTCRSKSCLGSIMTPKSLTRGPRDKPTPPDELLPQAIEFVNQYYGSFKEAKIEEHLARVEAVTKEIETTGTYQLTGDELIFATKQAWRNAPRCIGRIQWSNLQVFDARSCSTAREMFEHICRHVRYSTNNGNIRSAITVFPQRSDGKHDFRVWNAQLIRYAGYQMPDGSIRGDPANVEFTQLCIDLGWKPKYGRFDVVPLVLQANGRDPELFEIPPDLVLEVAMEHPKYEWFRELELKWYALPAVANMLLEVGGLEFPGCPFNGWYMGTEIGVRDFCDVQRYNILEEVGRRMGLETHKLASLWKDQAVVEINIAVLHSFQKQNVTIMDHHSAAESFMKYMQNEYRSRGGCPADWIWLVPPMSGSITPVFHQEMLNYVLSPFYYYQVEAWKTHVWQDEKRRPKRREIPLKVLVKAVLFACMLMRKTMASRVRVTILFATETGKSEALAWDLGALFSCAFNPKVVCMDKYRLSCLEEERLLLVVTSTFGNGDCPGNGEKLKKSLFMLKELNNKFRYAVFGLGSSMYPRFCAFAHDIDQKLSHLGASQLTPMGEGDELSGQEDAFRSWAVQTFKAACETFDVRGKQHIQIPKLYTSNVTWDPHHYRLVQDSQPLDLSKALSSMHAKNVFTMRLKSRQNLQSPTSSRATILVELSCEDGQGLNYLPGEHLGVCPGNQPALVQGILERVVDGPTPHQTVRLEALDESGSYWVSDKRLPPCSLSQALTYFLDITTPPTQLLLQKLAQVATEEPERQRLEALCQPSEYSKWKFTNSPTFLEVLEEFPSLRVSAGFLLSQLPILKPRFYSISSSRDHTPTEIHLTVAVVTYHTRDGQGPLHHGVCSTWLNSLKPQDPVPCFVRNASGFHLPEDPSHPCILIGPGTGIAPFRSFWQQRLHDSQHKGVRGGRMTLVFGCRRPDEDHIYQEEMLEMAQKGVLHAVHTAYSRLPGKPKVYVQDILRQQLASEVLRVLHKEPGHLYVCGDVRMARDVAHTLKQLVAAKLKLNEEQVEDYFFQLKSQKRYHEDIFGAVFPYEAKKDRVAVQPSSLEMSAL

Row | Compound | NMDA receptor binding / affinity (in words) [1] | IC50 [1, 6] | inhibition at 10 µM [2] | inhibition at 10 µM [3] | cannabimimetic activity relative to Δ-1-tetrahydrocannabinol [4] | IC50 ([1]; rat forebrain membranes, read-out: mean IC50 of [3H]MK-801 binding (FIG. 2)) | function, reduction of mortality and brain morphometry [5]
1 | CCCCCCC(C)(C)c1cc(O)c2c(c1)OC(C)(C)[C@H]1CC=C(CN3CCC(N4CCCCC4)CC3)CC21 (single isomer, unassigned; (+)) [211,257-000] | do not exhibit substantial NMDA receptor binding | > 100 µM | 10% | 39% |  |  | 
2 | CCCCCCC(C)(C)c1cc(O)c2c(c1)OC(C)(C)[C@@H]1CC=C(CO)C[C@@H]21 [HU-210] |  |  |  |  | ~100 times |  | 
3 | CCCCCCC(C)(C)c1cc(O)c2c(c1)OC(C)(C)[C@H]1CC=C(CN(Cc3ccccc3)c3ccccc3)C[C@H]21 [211,255-000] | do not exhibit substantial NMDA receptor binding | > 100 µM | 0% | 7% |  |  | 
4 | CCCCCCC(C)(C)c1cc(O)c2c(c1)OC(C)(C)[C@H]1CC=C(CN3CCC(C)CC3)CC21 (single isomer, unassigned; (+)) [211,251-000] | do not exhibit substantial NMDA receptor binding | > 100 µM | 0% | 37% |  |  | 
5 | CCCCCCC(C)(C)c1cc(O)c2c(c1)OC(C)(C)[C@H]1CC=C(CN3CCC(N4CCCC4)CC3)C[C@H]21 [211,253-000] | do not exhibit substantial NMDA receptor binding | > 100 µM | 0% | 27% |  |  | 
6 | CCCCCCC(C)(C)c1cc(O)c2c(c1)OC(C)(C)[C@H]1CC=C(CN3CCCC3)C[C@H]21 [211,128-000] | no detectable affinity | > 20 µM |  | 27% |  | > 20 µM | inactive
